Results from patent EP4052593B1, “TOBACCO FILLER FOR HEAT-NOT-BURN TOBACCO PRODUCTS, HEAT-NOT-BURN TOBACCO PRODUCT, AND ELECTRICALLY HEATED TOBACCO PRODUCT” (Japan Tobacco Inc., priority 2019, dated 2021).

What was measured:
[1] = Measurement of solubility in glycerin (GC-FID); type: physicochemical; details: Experimental Example 1, excess fatty acid in 2 g glycerin, standing 48 hours
Protocol: The solubility in glycerin is most preferably measured by a method for quantitatively determining a fatty acid dissolved in 2 g of glycerin. Specifically, after an excessive amount of a fatty acid is added to glycerin, the mixture is separated into two layers, for example, by standing at ordinary temperature for 24 hours or more or by centrifugal separation, 100 mg aliquot of glycerin is taken, and transferred and dissolved into 2 mL of methanol, and the amount of fatty acid dissolved in glycerin is quantitatively determined by gas chromatograph-flame ionized detector (GC-FID) or gas chromatograph-mass spectrometer (GC-MS).
If the amount of fatty acid excessively added is large, the separation into two layers becomes difficult, and thus it is necessary to add the fatty acid in a slightly excessive amount.

[2] = Measurement of count median diameter of residual aerosol in dilution with DMS (differential mobility spectrometer); type: physicochemical; details: for Count median diameter: Experimental Example 1, DMS, reduced pressure 0.25 bar, primary dilution 25 L/min, secondary dilution 200-fold, weight addition ratio of Table 1; for count median diameter (result in words): Experimental Example 1, DMS
From the text: Since the DMS measures an aerosol under reduced pressure (0.25 bar) and a high dilution condition, an aerosol with high volatility is easily vanished and gasified. In the case of an aerosol with relatively low volatility, a particle diameter distribution is obtained in terms of residual aerosol, although the aerosol is reduced by volatilization. In this case, if the diameters of generated aerosol particles are the same, the particle diameter distribution of the residual aerosol varies depending of the level of volatility. In this Example, a peak particle diameter based on the number is considered to indicate the stability under reduced pressure and a high dilution condition and thus is used as the index. A larger count median diameter means that an aerosol is more stably present, and a smaller count median diameter means that an aerosol is more unstable. Under the conditions of this experiment, the primary dilution was performed at 25 L/min, and the secondary dilution was set to 200-fold and performed. Note that a mass peak particle diameter immediately after the generation before dilution and pressure reduction were involved was also separately measured with Spraytec (Model STP5321, Malvern), and, in the types of additives and the range of the amounts of additives added in this Example, there was no difference, and the count median diameters were present at about 200 nm.

Row | Compound | Solubility in glycerin [1] [mg/g] | Count median diameter [2] [nm] | count median diameter (result in words) [2]
1 | CCCCCCCC(=O)O [Comparative Example 2, Octanoic acid] |  | 38.7 | 
2 | CCCCCCCCCCCCCCCCCCC(=O)O [Comparative Example 5, Nonadecanoic acid] | 0.09 | 74.6 | 
3 | CCCCCCCCCCCCCCCC(=O)O [palmitic acid] |  |  | large count median diameters
4 | CCCCCCCCCC(=O)O [Comparative Example 3, Decanoic acid] |  | 50.5 | 
5 | CC/C=C\C/C=C\C/C=C\CCCCCCCC(=O)O [Comparative Example 6, Linolenic acid] | 0.32 |  | 

Second part, the compound after the results:

Row | Solubility in glycerin [1] [mg/g] | Count median diameter [2] [nm] | count median diameter (result in words) [2] | Compound
6 | 0.14 | 51.6 |  | CCCCCCCCCCCCCC(=O)O [Comparative Example 4, Myristic acid]
7 | 0.14 | 61.9 |  | CCCCC/C=C\C/C=C\CCCCCCCC(=O)O [Comparative Example 7, Linoleic acid]
8 | 1.82 | 55.1 |  | CCCCCCCC/C=C\CCCCCCCC(=O)O [Comparative Example 8, Oleic acid]
9 |  | 67.8 |  | CCCCCCCCCCCCCCCC(=O)O [Example 1, Palmitic acid]
10 |  | 75.3 | large count median diameters | CCCCCCCCCCCCCCCCCC(=O)O [Example 2, Stearic acid]
